Details of data set [1]: method as in PMID 15745749. The following applies: pH 2, reversed-phase HPLC; cited from earlier work.
For data set [2] the following is noted: pH 2, reversed-phase HPLC. As to the method: The octanol-water (buffer) partition coefficient of ^18F-Alakyne and ^18F-Ala-folate was determined using the standard shake-flask method. Relative lipophilicity (k’ values) was determined by HPLC with an isocratic acetonitrile-phosphoric acid buffer eluent system at pH 2.4 as described elsewhere.
The next data set concerns the target T1, folate receptor (FR) (Homo sapiens, UniProt P15328).
T1 construct: endogenous in cells; host or cells: KB cells (human, from the German Collection of Microorganisms and Cell Cultures)
The experiment in a line: Displacement assay using KB cells and [^3H]folic acid. It is filed as binding.

Where two headings read alike, the source gives them in different places.

What is called Ki is a dissociation constant, usually derived from enzyme kinetics or from competition with a known ligand. A higher Ki goes with weaker binding. In general, IC50 refers to the point on the concentration scale where inhibition reaches its midpoint. Broadly, the pIC50 is the IC50 on a negative log10 scale, so that one unit is a factor of ten. Low values mean a large IC50, high ones a small IC50.

T1 sequence (P15328 25-257): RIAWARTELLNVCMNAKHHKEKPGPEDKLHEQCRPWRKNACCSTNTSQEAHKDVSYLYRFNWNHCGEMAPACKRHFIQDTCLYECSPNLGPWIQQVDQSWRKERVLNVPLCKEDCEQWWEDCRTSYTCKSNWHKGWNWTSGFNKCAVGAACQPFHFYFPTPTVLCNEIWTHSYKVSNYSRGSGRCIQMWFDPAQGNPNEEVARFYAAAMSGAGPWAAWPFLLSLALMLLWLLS

As for `Nc1nc(=O)c2nc(CNc3ccc(C(=O)N[C@@H](CCC(=O)O)C(=O)O)cc3)cnc2[nH]1` [native folic acid, folic acid], in data set [1], the “k′ Value” was 0.3 [5].

For the compound `Nc1nc2ncc(CNc3ccc(C(=O)NC(CCC(=O)NCCOCCOCCOCCn4cc(CNC(CF)C(=O)O)nn4)C(=O)O)cc3)nc2c(=O)[nH]1` (centres unmarked) [^19F-Ala-folate], the “k′ Value” in data set [2] is given as 0.27. Affinity at folate receptor (FR) (Cheng-Prusoff equation with Kd ([^3H]folic acid) = 1.0 nM) was put at a Ki of 5.5 ± 0.4 nM. Also, on folate receptor (FR) (KB-cells, [^3H]folic acid), the IC50 was found to be 6.4 ± 0.5 nM and the negative logarithm of the IC50 (pIC50) turned out to be 8.20 ± 0.05.

The values above are taken from publication PMC5874726, “Comparison Study of Two Differently Clicked ^18F-Folates—Lipophilicity Plays a Key Role” (Pharmaceuticals, 2018).
